Structures are written as SMILES. Results filed as inconclusive are left out. Activity calls are given as the source filed them.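 How the source made its calls: active means Compounds that reduce signal, with fitted half-maximal dose at or under twice the top valid tested dose; inconclusive means Poor fit, or flat curve losing 30 to 70% of signal; inactive means Potency past limit, flat within 30%, or opposite direction.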

The nature of one test: viability loss in HEK293T cells – cell-based, ATP luminescence, cherry-pick samples, cytotoxicity control, dose response (AID 687005). The following applies: HEK293T viability, ATP luminescence (CellTiter-Glo), 48 h; at 23.5 µM (top of the series).
In the case of `C[C@H](CO)N1C[C@H](C)[C@H](CN(C)CC2CCCCC2)Oc2ccc(NC(=O)Nc3ccc4c(c3)OCO4)cc2C1=O`, the activity change, negative = cytotoxicity is -3.46% (inactive).
Same read-out and setting: next, `C[C@@H]1CN([C@@H](C)CO)C(=O)c2cc(NC(=O)Nc3ccc(F)cc3)ccc2O[C@@H](C)CCCCO[C@H]1CN(C)S(=O)(=O)c1ccccc1`: 3.48% (inactive); `Cc1ccc(S(=O)(=O)Nc2ccc3c(c2)C(=O)N([C@@H](C)CO)C[C@H](C)[C@H](CN(C)C(=O)Nc2ccc(C(F)(F)F)cc2)O3)cc1`: -1.43% (inactive); `Cc1noc(C)c1NC(=O)N(C)C[C@@H]1Oc2ccc(NC(=O)NC(C)C)cc2CC(=O)N([C@@H](C)CO)C[C@@H]1C`: -4.18% (inactive).
Turning to `Cc1cc(C(=O)Nc2cccc3c2O[C@@H](CN(C)S(=O)(=O)c2ccccc2)[C@@H](C)CN([C@@H](C)CO)C3=O)n(C)n1`, the activity change, negative = cytotoxicity is -20.3% (inactive).
For `C[C@@H]1CN([C@@H](C)CO)C(=O)CCCn2cc(nn2)CO[C@@H]1CN(C)Cc1ccc2c(c1)OCO2`, the activity change, negative = cytotoxicity was -1.87% (inactive).
Same read-out and setting: the same measure for `Cc1noc(C)c1S(=O)(=O)Nc1ccc2c(c1)CC(=O)N([C@H](C)CO)C[C@H](C)[C@H](CN(C)S(=O)(=O)c1cccs1)O2`: -4.72% (inactive).

The test is the same for the next values; noted with them: HEK293T viability, ATP luminescence (CellTiter-Glo), 48 h; at 26 µM (top of the series).
With `Cc1noc(C)c1S(=O)(=O)Nc1ccc2c(c1)C(=O)N([C@@H](C)CO)C[C@@H](C)[C@@H](CN(C)Cc1ccccc1)OCCCC[C@H](C)O2`, the activity change, negative = cytotoxicity was -12.2% (inactive).
For the compound `O=C(c1cccc(F)c1)N1C[C@H]2[C@@H](c3ccccc31)[C@@H](CO)N2Cc1cocn1`, the activity change, negative = cytotoxicity was -0.298% (inactive).
On to `CC(C)NC(=O)Nc1ccc2c(c1)C(=O)N([C@@H](C)CO)C[C@H](C)[C@@H](CN(C)C(=O)CCC(F)(F)F)OCCCC[C@H](C)O2`, for which the activity change, negative = cytotoxicity was 42.8% (inactive).
On the same count and under the same terms, next, `CC=Cc1ccc2n(c1=O)C[C@H]1[C@H](CO)[C@@H](C(=O)NCc3ccc4c(c3)OCO4)[C@@H]2N1C(=O)C1CC1` (mixture of isomers): -15.5% (inactive); `Cc1cc(C)c(NC(=O)C2CCC(=O)N2)c(C)c1` (stereo not drawn): 12.8% (inactive).
As for `COc1cc(CO)cc(I)c1O[C@H]1C=C(C(=O)NCCO)C[C@@H](N(CC2CCCCC2)C(=O)c2cc3ccccc3oc2=O)[C@@H]1O`, the activity change, negative = cytotoxicity was 29.4% (inactive).
On the same count and under the same terms, next, `O=C(O)C[C@@H]1CC[C@@H]2[C@H](COC[C@H](O)CN2S(=O)(=O)c2ccc(F)cc2)O1`: -25.9% (inactive); `Cc1cc(C)c(NC(=O)C2CCCN2CCO)c(C)c1` (stereo not drawn): -10.1% (inactive).
Same read-out and setting: the same measure for `Cc1noc(C)c1NC(=O)N(C)C[C@H]1Oc2ccc(N(C)C)cc2C(=O)N([C@H](C)CO)C[C@@H]1C`: -11.8% (inactive); for `COc1ccccc1C(=O)Nc1ccc2c(c1)C(=O)N(C)C[C@@H](OC)[C@H](C)CN(C)[C@@H](C)CO2`: 0.103% (inactive).
Same read-out and setting: the same measure for `Cc1cccc(NC(=O)C2NC(=O)CC2c2ccccc2)c1C` (stereo not drawn): 8.03% (inactive); for `Cc1ccc(S(=O)(=O)N(C)C[C@@H]2Oc3ncc(Br)cc3C(=O)N([C@@H](C)CO)C[C@H]2C)cc1`: -14.6% (inactive).
For `COc1ccc(NC(=O)CSc2ncnc3c2cnn3CCc2ccccc2)cc1`, the activity change, negative = cytotoxicity is -33.3% (inactive).
Same read-out and setting: the same measure for `C[C@@H]1CN([C@@H](C)CO)C(=O)c2cccc(NC(=O)C3CC3)c2O[C@@H]1CN(C)C`: -4.49% (inactive); for `O=C(NC(=S)Nc1ccccc1N1CCOCC1)c1cccc([N+](=O)[O-])c1`: -5.81% (inactive).
Still for that read-out and setting: next, `CC(C)NC(=O)Nc1ccc2c(c1)CC(=O)N([C@@H](C)CO)C[C@@H](C)[C@@H](CN(C)Cc1ccc(Oc3ccccc3)cc1)O2`: -58.4% (inactive); `O=C(NC(=S)Nc1ccccc1N1CCCC1)c1ccc([N+](=O)[O-])cc1`: -8.4% (inactive).
The same measure, in the same setting: next, `C[C@@H]1CCCCO[C@H](CN(C)Cc2ccc3c(c2)OCO3)[C@H](C)CN([C@H](C)CO)C(=O)c2cc(NC(=O)Nc3cccc4ccccc34)ccc2O1`: 171% (inactive); `COCCNC(=O)C[C@@H]1C[C@H]2c3cc(NC(=O)C4CCC4)ccc3O[C@H]2[C@@H](CO)O1`: 3.65% (inactive); `CC(C)NC(=O)N(C)C[C@H]1Oc2c(NC(=O)C3CCCCC3)cccc2C(=O)N([C@H](C)CO)C[C@H]1C`: 5.22% (inactive).
As to `CNC[C@@H]1Oc2ccc(NS(=O)(=O)c3ccc(Cl)cc3)cc2C(=O)N([C@H](C)CO)C[C@H]1C`, the activity change, negative = cytotoxicity was 45.6% (inactive).
The same measure, in the same setting: the same measure for `CCCNC(=O)N1C[C@@H]2[C@H](c3ccccc31)[C@H](CO)N2Cc1ccc(OC)cc1`: 2.66% (inactive); for `COc1ccc(CN(C)C[C@@H]2Oc3ccc(NC(=O)Nc4ccc(F)cc4)cc3CC(=O)N([C@H](C)CO)C[C@H]2C)cc1`: -7.45% (inactive); for `Cc1cc(C(=O)NC(=S)Nc2ccccc2N2CCCC2)ccc1[N+](=O)[O-]`: -6.6% (inactive).
Regarding `Cc1ccccc1-n1ncc2c(SCC(=O)NCc3cccs3)ncnc21`, the activity change, negative = cytotoxicity was -48.1% (inactive).
The same measure, in the same setting: next, `CO[C@H]1CC[C@H]2CCOc3c(C#N)cccc3C(=O)N(C)C[C@@H](C)C(=O)N(C)C[C@H]1O2`: -16.5% (inactive).
Same read-out and setting: next, `O=C(C[C@H]1CC[C@@H](NC(=O)c2ccc3c(c2)OCO3)[C@@H](CO)O1)NCc1ccc(F)cc1`: -2.35% (inactive); `Cc1ccc(CSc2ncnc3c2cnn3-c2ccc(C)cc2)cc1`: -28.8% (inactive); `O=C1CCC(C(=O)Nc2cccc3ccccc23)N1` (stereo not drawn): 25.1% (inactive).
Regarding `C[C@@H]1CN([C@@H](C)CO)C(=O)c2cccc(N(C)C)c2O[C@H]1CN(C)C(=O)Nc1ccc(C(F)(F)F)cc1`, the activity change, negative = cytotoxicity is -5.69% (inactive).
On the same count and under the same terms, the same measure for `CCCNC(=O)C[C@@H]1CC[C@@H]2[C@H](COc3ccc(NC(=O)CCC)cc3C(=O)N2C)O1`: 52.7% (inactive); for `CO[C@@H]1CN(C)C(=O)c2cc(NC(=O)C3CC3)ccc2OC[C@H](C)N(C(=O)c2ccncc2)C[C@H]1C`: -22.9% (inactive).
On the same count and under the same terms, next, `COc1ccc(NC(=O)N(C)C[C@H]2OCCCC[C@@H](C)Oc3ccc(NC(=O)c4ccccc4)cc3C(=O)N([C@H](C)CO)C[C@H]2C)cc1`: -27.5% (inactive); `C[C@H]1CN([C@@H](C)CO)C(=O)Cc2cc(NC(=O)CCCCCC(=O)Nc3ccccc3N)ccc2O[C@H]1CN(C)C(=O)Nc1ccccc1`: -5.33% (inactive).

The test is the same for the next values; noted with them: HEK293T viability, ATP luminescence (CellTiter-Glo), 48 h; at 42 µM (top of the series).
Take `Cc1ccc(NC(=O)C2(C)CCN2C(=O)CC2CC2)cc1C` (stereo not drawn): the activity change, negative = cytotoxicity was 22.8% (inactive).
Same read-out and setting: the same measure for `Cc1cccc(C)c1NC(=O)C1NC(=O)CC1c1ccccc1` (stereo not drawn): 0.826% (inactive).
